Reference: patent US20020137929A1, “1 - (3-heterocyclylphenyl) isothiourea, -isourea, -guanidine and -amidine herbicidal agents” (Intellectual Property Department, BASF Aktiengesellschaft, priority 1998, published 2002)

Legend:
[1] = tested on: IPOHE (Morningglory, Ivyleaf); assay: Postemergence herbicidal evaluation; type: in vivo, Ipomoea hederacea
Procedure, shortened: (§1)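 Seedlings grown about two weeks were sprayed at 40 psi with compound dispersed in 50/50 acetone/water plus 0.5% TWEEN 20, at about 0.0156 to 0.500 kg/ha. Plants were kept in the greenhouse and scored 4–5 weeks later on a 0–9 visual scale against untreated controls.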

AMBEL (Ragweed, Common) [2] = assay: Preemergence herbicidal evaluation; type: in vivo, Ambrosia artemisifolia; conditions: rated 4-5 weeks after treatment
Procedure, shortened: (§2)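 Test compound, dissolved in aqueous acetone, was sprayed over planted soil cups at an equivalent of about 0.0156 to 0.500 kg/ha; seeds had been mixed with potting soil. Greenhouse growth followed, with visual 0-9 scoring of injury at four to five weeks.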

[3] = tested on: CHEAL (Lambsquarters, Common); assay: Postemergence herbicidal evaluation; type: in vivo, Chenopodium album
Procedure, shortened: as §1

CASOB (Sicklepod) [4] = assay: Preemergence herbicidal evaluation; type: in vivo, Cassia obtusifolia; conditions: rated 4-5 weeks after treatment
Procedure, shortened: as §2

[5] = tested on: GLXMAW (Soybean, Williams); assay: Preemergence herbicidal evaluation; type: in vivo, Glycine max, (L.) Merr. cv Williams; conditions: rated 4-5 weeks after treatment
Procedure, shortened: as §2

[6] = tested on: TRZAWR (Wheat, Winter, cv Riband); assay: Postemergence herbicidal evaluation; type: in vivo, Triticum aestivum
Procedure, shortened: as §1

[7] = tested on: CHEAL (Lambsquarters, Common); assay: Preemergence herbicidal evaluation; type: in vivo, Chenopodium album; conditions: rated 4-5 weeks after treatment
Procedure, shortened: as §2

MOOVA (Monochoria) = assay: Preemergence weed control under flooded paddy conditions; type: in vivo, Monochoria vaginalis; conditions: rated 3-4 weeks after treatment
Procedure, shortened: (§3)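 Flooded-pot preemergence screen with silt loam and seeds in the upper 0.5 cm. Dose about 0.0313 to 0.500 kg/ha, delivered into flood water; visual 0-9 score after 3 to 4 weeks.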

ECHCG (Barnyardgrass) = assay: Postemergence herbicidal evaluation; type: in vivo, Echinochloa crus-galli
Procedure, shortened: as §1

CASOB (Sicklepod) [8] = assay: Postemergence herbicidal evaluation; type: in vivo, Cassia obtusifolia
Procedure, shortened: as §1

ORYSAT (Rice, Tebonnet) = assay: Preemergence herbicidal evaluation; type: in vivo, Oryza sativa, (L.) Tebonnet; conditions: rated 4-5 weeks after treatment
Procedure, shortened: as §2

[9] = tested on: SAGPY (Arrowhead (Pygmaea)); assay: Preemergence weed control under flooded paddy conditions; type: in vivo, Sagittaria pygmaea; conditions: rated 3-4 weeks after treatment
Procedure, shortened: as §3

AMBEL (Ragweed, Common) [10] = assay: Postemergence herbicidal evaluation; type: in vivo, Ambrosia artemisifolia
Procedure, shortened: as §1

ABUTH (Velvetleaf) = assay: Preemergence herbicidal evaluation; type: in vivo, Abutilon theophrasti; conditions: rated 4-5 weeks after treatment
Procedure, shortened: as §2

[11] = tested on: IPOHE (Morningglory, Ivyleaf); assay: Preemergence herbicidal evaluation; type: in vivo, Ipomoea hederacea; conditions: rated 4-5 weeks after treatment
Procedure, shortened: as §2

[12] = tested on: GLXMAW (Soybean, Williams); assay: Postemergence herbicidal evaluation; type: in vivo, Glycine max, (L.) Merr. cv Williams
Procedure, shortened: as §1

CCOC(=O)CN1C(=O)CS(=O)(=O)C1=Nc1cc(-n2c(=O)cc(C(F)(F)F)n(C)c2=O)c(F)cc1Cl [Compound 46, 2-{{2-Chloro-5-[3,6-dihydro-3-methyl-2,6-dioxo-4-(trifluoromethyl)-1(2H)-pyrimidinyl]-4-fluoro-phenyl}imino}-4-oxo-3-thiazolidineacetic acid, ethyl ester, 1,1-dioxide]
7.0: Herbicidal rating MOOVA (MOOVA (Monochoria); 0.2500 kg/ha)
3.0: Postemergence herbicidal rating IPOHE ([1]; Rate 0.0313 kg/ha) | Postemergence herbicidal rating TRZAWR ([6]; Rate 0.0625 kg/ha) | Herbicidal rating MOOVA (MOOVA (Monochoria); 0.0313 kg/ha) | Herbicidal rating SAGPY ([9]; 0.2500 kg/ha)
5.0: Postemergence herbicidal rating AMBEL (AMBEL (Ragweed, Common) [10]; Rate 0.0625 kg/ha) | Postemergence herbicidal rating GLXMAW ([12]; Rate 0.0313 kg/ha)
6.0: Herbicidal rating MOOVA (MOOVA (Monochoria); 0.1250 kg/ha)
2.0: Postemergence herbicidal rating TRZAWR ([6]; Rate 0.0313 kg/ha)
1.0: Preemergence herbicidal rating AMBEL (AMBEL (Ragweed, Common) [2]; rate 0.1250 kg/ha) | Preemergence herbicidal rating AMBEL (AMBEL (Ragweed, Common) [2]; rate 0.2500 kg/ha) | Preemergence herbicidal rating IPOHE ([11]; rate 0.2500 kg/ha)
9.0: Postemergence herbicidal rating IPOHE ([1]; Rate 0.0625 kg/ha) | Preemergence herbicidal rating CHEAL ([7]; rate 0.1250 kg/ha) | Preemergence herbicidal rating CHEAL ([7]; rate 0.2500 kg/ha) | Preemergence herbicidal rating ABUTH (ABUTH (Velvetleaf); rate 0.1250 kg/ha) | Preemergence herbicidal rating ABUTH (ABUTH (Velvetleaf); rate 0.2500 kg/ha)
4.0: Herbicidal rating MOOVA (MOOVA (Monochoria); 0.0625 kg/ha)
0.0: Postemergence herbicidal rating CHEAL ([3]; Rate 0.0313 kg/ha) | Postemergence herbicidal rating CHEAL ([3]; Rate 0.0625 kg/ha) | Preemergence herbicidal rating CASOB (CASOB (Sicklepod) [4]; rate 0.1250 kg/ha) | Preemergence herbicidal rating CASOB (CASOB (Sicklepod) [4]; rate 0.2500 kg/ha) | Preemergence herbicidal rating GLXMAW ([5]; rate 0.1250 kg/ha) | Preemergence herbicidal rating GLXMAW ([5]; rate 0.2500 kg/ha) | Postemergence herbicidal rating ECHCG (ECHCG (Barnyardgrass); Rate 0.0313 kg/ha) | Postemergence herbicidal rating ECHCG (ECHCG (Barnyardgrass); Rate 0.0625 kg/ha) | Postemergence herbicidal rating CASOB (CASOB (Sicklepod) [8]; Rate 0.0313 kg/ha) | Postemergence herbicidal rating CASOB (CASOB (Sicklepod) [8]; Rate 0.0625 kg/ha) | Preemergence herbicidal rating ORYSAT (ORYSAT (Rice, Tebonnet); rate 0.1250 kg/ha) | Preemergence herbicidal rating ORYSAT (ORYSAT (Rice, Tebonnet); rate 0.2500 kg/ha) | Herbicidal rating SAGPY ([9]; 0.0313 kg/ha) | Herbicidal rating SAGPY ([9]; 0.0625 kg/ha) | Herbicidal rating SAGPY ([9]; 0.1250 kg/ha) | Postemergence herbicidal rating AMBEL (AMBEL (Ragweed, Common) [10]; Rate 0.0313 kg/ha) | Preemergence herbicidal rating IPOHE ([11]; rate 0.1250 kg/ha)
5.5: Postemergence herbicidal rating GLXMAW ([12]; Rate 0.0625 kg/ha)
